{"source": "patent US10870713B2", "about": "“Procatalyst and polymerization process using the same” (Dow Global Technologies LLC, priority 2015, dated 2020)", "key": {"[1]": {"assay": "Solubility testing of procatalysts in aliphatic hydrocarbon solvents", "assay_type": "physicochemical", "procedure": "Hexanes (10 mL) was added to this material and the solution was allowed to settle overnight. 5.03 grams of the clear supernatant hexanes was removed from the vial, then the hexanes was removed from this clear solution to leave behind 205 mg of product.\nHexanes (10 mL) was added to this material and the solution was allowed to settle overnight. 5.1 grams of the clear supernatant hexanes was removed from the vial, then the hexanes was removed from this clear solution to leave behind 140 mg of product.\nAbout 950 mg of pre-catalyst used. Added ISOPAR-E (40 mL). Swirled solution then allowed insoluble material to settle to the bottom of the jar overnight. Removed 5.06 grams of ISOPAR-E solution into a vial. Solvent was removed and 120 mg of pre-catalyst was obtained.\nTo 72.3 mg of the solid in a vial was added 0.9 mL of ISOPAR E. The solution was stirred for about 1 h. The mixture was filtered and the solution was weighted (0.2934 g).\nA 20-mL vial was charged with 82.0 mg of the Hf-complex and 0.8 mL of ISOPAR E. The mixture was stirred for 2 h and it was filtered via syringe filter. The colorless solution was weight and then concentrated under vacuum for 3 h. The white solid was weight to obtained 0.0217 g for a 6.2 w/w % solubility.\nTo the solid was added 0.2198 g of ISOPAR E and stirred for 1 hour. The solid completely dissolved to indicate a 9.5 wt % solubility in ISOPAR E.\nTo the Hf-complex was added 4 mL of hexane, and the solution was stirred for 4 hours. The solution was filtered via syringe to provide a weight of 2.0638 g. This solution was concentrated under vacuum to afford 0.3228 g of the solid 17 indicative of a 15.6 wt % solubility in hexanes. […]\nSolubility was determined by either first forming a saturated solution of the procatalyst in one or more of the solvents as shown in Table 1. […] A portion of the clear supernatant is removed, and the mass is recorded. […] The mass of the resulting procatalyst that was in solution is recorded, allowing for calculation of a w/w % solubility in the indicated solvent. […]"}, "[2]": {"assay": "Batch polymerization of ethylene and 1-octene in a Parr reactor (catalyst efficiency)", "settings": "reactor 147° C.; ISOPAR-E 1320 g; 1-octene 250 g; ethylene 410 psi; 10 min; procatalyst:activator 1:1.2; procatalyst:MMAO 1:50", "from_the_text": "The procatalysts shown above were used to polymerize ethylene and 1-octene in a Parr batch polymerization reactor. All feeds were passed through columns of alumina and Q-5 catalyst (available from Engelhard Chemicals Inc.) prior to introduction into the polymerization reactor. Procatalyst and activator solutions were handled in a glove box under nitrogen atmosphere prior to addition to the polymerization reactor.\nTable 2 illustrates the batch polymerizations results for each of C1 and 11-12 under the following conditions: reactor temperature: 147° C.; ISOPAR-E: 1320 g; 1-octene: 250 g; ethylene pressure: 410 psi; Run time: 10 min; procatalyst to activator ratio is 1:1.2; activator=[HNMe(C18H37)2][B(C6F5)4]; procatalyst to MMAO ratio is 1:50; […]\nThe catalyst efficiency is calculated by dividing the number of grams of the polyolefin copolymer prepared by the total number of grams of metal M of ingredient (a) employed (i.e., metal M of the at least one metal-ligand complex of formula (I)) (i.e., catalyst efficiency=g polyolefin copolymer prepared/g metal M of metal-ligand complex(es) of formula (I) employed)."}}, "data": [{"smiles": "Cc1cc2c(c(-n3c4ccccc4c4ccccc43)c1)[O][Hf-2]13([CH3])([CH3])[O]c4c(cc(C)cc4-n4c5ccccc5c5ccccc54)-c4ccccc4[O+]1C[C@@H]1CCCCC1C[O+]3c1ccccc1-2", "note": "(stereo partly shown) [Procatalyst C1]", "values": [{"measurement": "wt/wt % Solubility, ISOPAR-E", "setting": "[1]; solvent ISOPAR-E", "result": 1.2, "unit": "wt/wt %"}, {"measurement": "wt/wt % Solubility, Hexanes", "setting": "[1]; solvent hexanes", "result": 0.5, "unit": "wt/wt %"}, {"measurement": "wt/wt % Solubility, Methylcyclohexane", "setting": "[1]; solvent methylcyclohexane", "result": 1.7, "unit": "wt/wt %"}, {"measurement": "Efficiency", "setting": "[2]", "result": "826,377 g polyolefin copolymer prepared/g metal M"}]}]}
